Data: article PMC11013038, “Design, Synthesis, and Evaluation of B-(Trifluoromethyl)phenyl Phosphine–Borane Derivatives as Novel Progesterone Receptor Antagonists” (Molecules, 2024)

Assays:
[1] = target: T1, progesterone receptor (PR) (Homo sapiens, UniProt P06401); assay: T47D alkaline phosphatase assay, PR antagonistic activity in the presence of 1 nM P4; assay type: cell-based; settings: for IC50: T47D cells, 1.0 nM P4, 48 h, mean ± SD from three independent experiments
T1 construct: alkaline phosphatase assay with the T47D human breast cancer cell line; endogenous in cells; host or cells: T47D
T1 sequence (P06401 1-933): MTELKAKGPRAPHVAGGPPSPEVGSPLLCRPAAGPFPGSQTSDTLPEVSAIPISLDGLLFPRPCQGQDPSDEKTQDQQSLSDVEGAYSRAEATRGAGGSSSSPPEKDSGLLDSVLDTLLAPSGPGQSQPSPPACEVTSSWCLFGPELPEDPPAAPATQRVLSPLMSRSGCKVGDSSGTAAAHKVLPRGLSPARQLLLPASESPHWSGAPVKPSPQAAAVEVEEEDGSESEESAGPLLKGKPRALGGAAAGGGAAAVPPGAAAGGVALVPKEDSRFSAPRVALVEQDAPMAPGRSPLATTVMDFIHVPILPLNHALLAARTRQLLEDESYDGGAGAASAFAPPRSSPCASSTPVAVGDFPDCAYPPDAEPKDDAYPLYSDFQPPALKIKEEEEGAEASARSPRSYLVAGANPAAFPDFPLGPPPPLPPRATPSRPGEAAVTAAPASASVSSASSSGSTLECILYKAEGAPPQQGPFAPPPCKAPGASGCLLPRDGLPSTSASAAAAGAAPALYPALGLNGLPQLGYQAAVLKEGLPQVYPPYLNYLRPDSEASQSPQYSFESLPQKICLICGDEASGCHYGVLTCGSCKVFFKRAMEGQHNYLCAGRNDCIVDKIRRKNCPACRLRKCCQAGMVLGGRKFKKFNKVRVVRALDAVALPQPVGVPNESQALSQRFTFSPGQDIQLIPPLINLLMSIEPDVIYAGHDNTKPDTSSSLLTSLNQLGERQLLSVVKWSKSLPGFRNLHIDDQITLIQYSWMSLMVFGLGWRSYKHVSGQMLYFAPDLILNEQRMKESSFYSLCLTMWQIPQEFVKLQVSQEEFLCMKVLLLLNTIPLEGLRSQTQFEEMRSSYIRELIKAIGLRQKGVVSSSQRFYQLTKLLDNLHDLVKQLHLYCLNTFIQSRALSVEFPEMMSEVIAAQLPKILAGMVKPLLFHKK
Description: (§1) The PR agonistic and antagonistic activities of the synthesized phosphine–borane derivatives were evaluated using an alkaline phosphatase assay with the T47D human breast cancer cell line. […] The basal alkaline phosphatase activity was also not affected by the tested compounds alone. […] The PR antagonistic activities of the compounds were assessed in the presence of 1 nM of P4 (5). We also calculated the molecular volume of each compound to investigate the structure–activity relationship (SAR). Table 2 summarizes the PR antagonistic activity and calculated volumes of the synthesized compounds. […] We investigated the binding affinity of the compounds toward the PR ligand-binding domain (LBD) using a fluorescence polarization assay system. […] We also investigated the activity of compounds 28 and 34 toward the androgen receptor (AR) by means of cell-proliferation promoting/inhibitory activity toward androgen-dependent SC-3 cells. […].
T47D alkaline phosphatase assays were performed as previously described, with minor modifications. Briefly, the human breast cancer cell line T47D (HMS LINCS database Accession Numbers: 50541) was routinely cultivated in RPMI 1640 medium with 10% FBS at 37 °C in a 5% CO2 humidified incubator. The cells were plated in 96-well plates and incubated overnight in a 5% CO2 humidified incubator at 37 °C. The next day, the cells were treated with a fresh medium containing the test compound in the presence of 1 nM of progesterone and further incubated for 48 h. The medium was aspirated, and the cells were fixed with 100 μL of 1.8% formalin–PBS. The fixed cells were washed with PBS, and 100 μL of an assay buffer (1 mg/mL p-nitrophenol phosphate in diethanolamine water solution, pH 9.0) was added. The mixture was incubated at room temperature for 2 h under light-shielded conditions. The absorbance was measured at 405 nm using a DTX 880 Multimode Detector (Beckman Coulter, Brea, CA, USA). All data points were measured in triplicate, and IC50 values were calculated from three independent experiments.

[2] = target: T2, PR ligand-binding domain (LBD) (Homo sapiens, UniProt P06401); assay: PR LBD competitive binding assay (fluorescence polarization, PolarScreen kit); settings: fluorescence polarization competition, 100 nM to 32 μM, Figure 5
T2 construct: purchased Invitrogen A15905
T2 sequence (P06401 679-913 limits assumed): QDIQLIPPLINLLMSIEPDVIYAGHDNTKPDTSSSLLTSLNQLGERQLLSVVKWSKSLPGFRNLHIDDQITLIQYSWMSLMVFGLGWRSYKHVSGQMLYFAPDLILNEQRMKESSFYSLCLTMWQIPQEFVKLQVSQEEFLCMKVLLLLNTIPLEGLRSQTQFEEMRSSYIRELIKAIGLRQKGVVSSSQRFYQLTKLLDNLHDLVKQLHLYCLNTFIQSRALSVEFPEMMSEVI
Description: as §1
PR binding affinity was assessed using a PolarScreen Progesterone Receptor Competitor Assay Kit, Green (Invitrogen, Waltham, MA, USA, A15905) based on the manufacturer’s instruction. […] The fluorescence polarization value (mP) was measured at 485 nm/535 nm (excitation/emission) on a DTX 880 Multimode Detector (Beckman Coulter).

## C[P+](C)(C)[BH2-]c1ccc(C(F)(F)F)cc1 [Compound 28, B-4-(Trifluoromethyl)phenyl Trimethylphosphine–Borane]
[1]
  IC50: > 10000 nM
[2]
  binding affinity toward PR LBD (in words): did not show the affinity

## FC(F)(F)c1ccc([BH2-][P+](C2CC2)(C2CC2)C2CC2)cc1 [Compound 34, B-4-(Trifluoromethyl)phenyl Tricyclopropylphosphine–Borane]
[1]; T47D alkaline phosphatase assay, comparison of IC50
  potency relative to triisopropylphosphine derivative 32: approximately three times more potent
[1]
  IC50: 540 ± 90 nM
[2]
  binding affinity toward PR LBD (in words): exhibited significant affinity toward PR LBD
